Molecules are shown by their SMILES. pKi: −log10 of the molar value.

This experiment has as its target 5'-nucleotidase CD73 (Homo sapiens) (UniProt P21589). The experiment can be described thus: Binding affinity to human recombinant CD73 expressed in Sf9 cells assessed as inhibition constant by malachite green based spectrophotometer assay.

Chain of 5'-nucleotidase CD73 (Homo sapiens) (P21589 whole entry, looked up): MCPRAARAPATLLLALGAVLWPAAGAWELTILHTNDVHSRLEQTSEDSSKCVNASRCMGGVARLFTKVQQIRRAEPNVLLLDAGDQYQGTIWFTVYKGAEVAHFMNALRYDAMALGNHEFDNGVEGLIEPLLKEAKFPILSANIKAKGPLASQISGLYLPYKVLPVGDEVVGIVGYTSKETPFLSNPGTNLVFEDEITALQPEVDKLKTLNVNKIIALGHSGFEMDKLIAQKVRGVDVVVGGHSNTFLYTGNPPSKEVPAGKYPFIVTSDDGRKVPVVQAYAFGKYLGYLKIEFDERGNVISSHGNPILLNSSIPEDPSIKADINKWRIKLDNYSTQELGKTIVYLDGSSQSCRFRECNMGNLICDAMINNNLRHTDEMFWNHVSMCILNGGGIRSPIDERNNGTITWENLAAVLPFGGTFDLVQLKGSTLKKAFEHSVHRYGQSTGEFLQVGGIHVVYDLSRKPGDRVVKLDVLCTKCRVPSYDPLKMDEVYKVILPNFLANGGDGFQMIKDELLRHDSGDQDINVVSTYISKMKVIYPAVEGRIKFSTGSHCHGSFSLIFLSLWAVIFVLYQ

For the compound `CCN(CC)c1nc(Cl)nc2c1ncn2[C@@H]1O[C@H](COCP(=O)(O)OP(=O)(O)C(Br)(Br)P(=O)(O)O)[C@@H](O)[C@H]1O`, the pKi is 7.01.

For the origin of these results see BindingDB's records for PubMed 37302340 (Chengdu University of Traditional Chinese Medicine).
